Laboratory results: ChEMBL document CHEMBL5727528, “Benzenesulfonamide compounds, method for synthesizing same, and use thereof in medicine and cosmetics” (2020)

Molecular target: T1, Interstitial collagenase (Homo sapiens, UniProt P03956)
T1 sequence (P03956 whole entry): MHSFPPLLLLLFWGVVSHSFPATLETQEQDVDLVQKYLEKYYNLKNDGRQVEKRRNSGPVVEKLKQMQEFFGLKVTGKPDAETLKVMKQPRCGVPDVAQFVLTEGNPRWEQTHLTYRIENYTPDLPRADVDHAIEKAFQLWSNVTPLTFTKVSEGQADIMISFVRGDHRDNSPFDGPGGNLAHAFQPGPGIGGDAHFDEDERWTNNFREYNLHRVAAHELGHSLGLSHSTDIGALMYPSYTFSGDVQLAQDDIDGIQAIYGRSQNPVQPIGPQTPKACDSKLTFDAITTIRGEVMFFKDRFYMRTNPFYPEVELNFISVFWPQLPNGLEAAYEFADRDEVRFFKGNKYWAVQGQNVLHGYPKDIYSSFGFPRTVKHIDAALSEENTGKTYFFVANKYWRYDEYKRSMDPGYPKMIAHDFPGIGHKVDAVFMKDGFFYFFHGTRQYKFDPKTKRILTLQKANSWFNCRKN

COCCN(C1(C(=O)NO)CN(C(=O)C(C)C)C1)S(=O)(=O)c1ccc(OCc2cc(C)nc3ccccc23)cc1
IC50: > 10 µM
